Drawing on patent US20230348426A1, “OXOPYRROLIDINE FPR2 AGONISTS” (Bristol-Myers Squibb Company, priority 2020, published 2023), this text covers EC50 for 43 compounds.

In one experiment the target is human FPR1 (Homo sapiens (Human), UniProt P21462). In words: FPR1 cyclic adenosine monophosphate (cAMP) assay. To be noted: CHO cells overexpressing human FPR1; forskolin 10 µM; inhibition of cAMP production; read-out: hFPR1 cAMP EC50. It is filed as cell-based. In outline: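 Human FPR1-expressing CHO cells were used at 4,000 per well, with compound at 0.020 nM–100 µM in 1% DMSO. Potency came from a 4-parameter logistic fit.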
Sequence of human FPR1 (P21462 whole entry): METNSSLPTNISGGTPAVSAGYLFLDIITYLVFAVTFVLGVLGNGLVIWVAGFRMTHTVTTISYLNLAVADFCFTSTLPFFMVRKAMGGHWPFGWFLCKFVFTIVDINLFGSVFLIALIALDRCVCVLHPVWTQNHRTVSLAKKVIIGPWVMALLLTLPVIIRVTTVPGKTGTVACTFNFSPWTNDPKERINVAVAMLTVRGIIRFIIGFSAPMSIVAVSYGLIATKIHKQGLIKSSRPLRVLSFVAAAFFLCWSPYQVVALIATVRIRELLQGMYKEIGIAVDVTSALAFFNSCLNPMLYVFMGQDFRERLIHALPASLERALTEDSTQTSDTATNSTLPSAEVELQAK
A general note: cAMP levels reflect the balance of adenylyl cyclase and phosphodiesterase activity.

The target in a further experiment is human FPR2 (Homo sapiens (Human), UniProt P25090). In words: FPR2 cyclic adenosine monophosphate (cAMP) assay. To be noted: CHO cells overexpressing human FPR2; forskolin 5 µM; inhibition of cAMP production; read-out: hFPR2 cAMP2 EC50. The experiment is classed as cell-based. In outline: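 Inhibition of forskolin-driven (5 µM) cAMP, with 200 µM IBMX, measured in human FPR2-expressing CHO cells, 2,000 per well, 30 min at room temperature; compounds tested 0.020 nM to 100 µM in 1% DMSO. HTRF 665/590 ratio converted to cAMP via calibration curve, then 4-parameter fit.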
Sequence of human FPR2 (P25090 whole entry): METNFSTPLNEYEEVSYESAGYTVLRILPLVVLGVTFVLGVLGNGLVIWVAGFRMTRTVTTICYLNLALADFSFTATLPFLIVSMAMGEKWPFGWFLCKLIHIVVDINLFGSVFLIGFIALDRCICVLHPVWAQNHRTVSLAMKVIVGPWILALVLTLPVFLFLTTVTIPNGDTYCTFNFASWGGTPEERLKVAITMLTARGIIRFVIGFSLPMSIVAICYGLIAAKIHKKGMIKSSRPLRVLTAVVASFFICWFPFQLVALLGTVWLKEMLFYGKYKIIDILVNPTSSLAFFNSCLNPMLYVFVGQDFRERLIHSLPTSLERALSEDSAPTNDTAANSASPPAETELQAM

Some results are limits rather than exact numbers.

For `COCC(C(=O)N(C)C)n1cccc(N2C[C@@H](c3ccc(Cl)cc3)[C@H](NC(=O)c3ccc(OC(F)F)cc3)C2=O)c1=O` (some centres unmarked) [Example 317], the concentration for a half-maximal effect (EC50) (usually the concentration needed to bring the measured effect to its halfway point) amounted to 0.0026 µM on human FPR1 and 0.01 µM on human FPR2.
The corresponding values for `COc1cc(F)c([C@@H]2CN(c3nc(N4C[C@@H](C)N(C)[C@@H](C)C4)ccc3C#N)C(=O)[C@H]2NC(=O)c2ccc(Cl)cc2)c(F)c1` [Example 318] are above 10 µM and 0.01 µM.
The matching figures for `CCn1cccc(N2C[C@@H](c3c(F)cc(OC)cc3F)[C@H](NC(=O)c3ccc(C#N)cc3)C2=O)c1=O` [Example 319]: 0.2 µM and 0.01 µM.
The matching figures for `COc1cc(F)c([C@@H]2CN(c3cccn(C4CCOC4)c3=O)C(=O)[C@H]2NC(=O)c2ccc(OC(F)F)cc2)c(F)c1` (some centres unmarked) [Example 320]: 0.044 µM and 0.01 µM.
With `COc1cc(F)c([C@@H]2CN(c3cccn(CC(F)F)c3=O)C(=O)[C@H]2NC(=O)c2ccc(C#N)cc2)c(F)c1` [Example 321], the EC50 came out at 0.57 µM at human FPR1 and 0.01 µM at human FPR2.
Turning to `COCCn1cc(F)cc(N2C[C@@H](c3c(F)cc(OC)cc3F)[C@H](NC(=O)c3ccc(OC(F)(F)F)cc3)C2=O)c1=O` [Example 322], the EC50 on human FPR1 is 0.097 µM; on human FPR2, 0.01 µM.
As to `COc1cc(F)c([C@@H]2CN(c3cc(NC(C)=O)cn(C)c3=O)C(=O)[C@H]2NC(=O)c2ccc(OC(F)F)cc2)c(F)c1` [Example 323], the EC50 at human FPR1 turned out to be 0.75 µM; on human FPR2, 0.011 µM.
The corresponding values for `COc1cc(F)c([C@@H]2CN(c3ccc(C)n(C)c3=O)C(=O)[C@H]2NC(=O)c2ccc(OC(F)F)cc2)c(F)c1` [Example 324] are 0.13 µM and 0.011 µM.
As to `COCC(CO)n1ccc(C)c(N2C[C@@H](c3c(F)cc(OC)cc3F)[C@H](NC(=O)c3ccc(OC(F)(F)F)cc3)C2=O)c1=O` (some centres unmarked) [Example 325], the figures for the EC50 on human FPR1 and on human FPR2 were 0.0016 µM and 0.011 µM, respectively.
In the case of `COc1cc(F)c([C@@H]2CN(c3nc(N4CCC(O)C4=O)ccc3F)C(=O)[C@H]2NC(=O)c2ccc(OC(F)(F)F)cc2)c(F)c1` (some centres unmarked) [Example 326], the EC50 is 0.035 µM at human FPR1 and 0.011 µM on human FPR2.
`COc1cc(F)c([C@@H]2CN(c3nccc(NC4COC4)c3C(F)(F)F)C(=O)[C@H]2NC(=O)c2ccc(Cl)cc2)c(F)c1` [Example 327]: the EC50 on human FPR1 is 1.7 µM; on human FPR2 it was 0.012 µM.
The corresponding values for `COc1cc(F)c([C@@H]2CN(c3nc(N4C[C@@H]5C[C@H]4CN5C)ccc3OC)C(=O)[C@H]2NC(=O)c2ccc(OC(F)F)cc2)c(F)c1` [Example 328] are 0.61 µM and 0.012 µM.
As to `COc1cc(F)c([C@@H]2CN(c3cc(C#N)cn(C)c3=O)C(=O)[C@H]2NC(=O)c2ccc(OC(F)F)cc2)c(F)c1` [Example 330], the EC50 at human FPR1 came to 3.7 µM; at human FPR2 it was 0.013 µM.
The matching figures for `COc1cc(F)c([C@@H]2CN(c3nc(N4C[C@@H](C)N(C)[C@@H](C)C4)ccc3C#N)C(=O)[C@H]2NC(=O)c2ccc(OC(F)F)cc2)c(F)c1` [Example 332]: 5.8 µM and 0.013 µM.
For the compound `COc1cc(F)c([C@@H]2CN(c3nc(N4CCN(C)CC4)ccc3C(F)F)C(=O)[C@H]2NC(=O)c2ccc(Cl)cc2)c(F)c1` [Example 333], the EC50 at human FPR1 was found to be 5.7 µM; at human FPR2, 0.014 µM.
The matching figures for `COc1cc(F)c([C@@H]2CN(c3nccc(N4C[C@@H]5C[C@H]4CN5C)c3C(F)(F)F)C(=O)[C@H]2NC(=O)c2ccc(Cl)cc2)c(F)c1` [Example 334]: 0.48 µM and 0.014 µM.
The corresponding values for `COc1cc(F)c([C@@H]2CN(C3CCC3)C(=O)[C@H]2NC(=O)c2ccc(OC(F)(F)F)cc2)c(F)c1` [Example 335] are 0.45 µM and 0.015 µM.
Consider `COCCn1c(C)ccc(N2C[C@@H](c3c(F)cc(OC)cc3F)[C@H](NC(=O)c3ccc(OC(F)F)cc3)C2=O)c1=O` [Example 336], for which the results for the EC50 on human FPR1 and on human FPR2 were 0.06 µM and 0.017 µM, respectively.
As for `COc1cc(F)c([C@@H]2CN(c3c(C(F)(F)F)ccn(C)c3=O)C(=O)[C@H]2NC(=O)c2ccc(Cl)cc2)c(F)c1` [Example 337], the EC50 at human FPR1 is 4.3 µM; at human FPR2, 0.017 µM.
For `COCCn1ccc(C)c(N2C[C@@H](c3ccc(Cl)cc3)[C@H](NC(=O)c3ccc(OC(F)(F)F)cc3)C2=O)c1=O` [Example 339], the EC50 was found to be 0.0006 µM on human FPR1 and 0.023 µM at human FPR2.
The corresponding values for `COCCn1ccc(C)c(N2C[C@@H](c3ccc(Cl)cc3)[C@H](NC(=O)c3ccc(OC(F)F)cc3)C2=O)c1=O` [Example 340] are 0.0011 µM and 0.023 µM.
With `COc1cc(F)c([C@@H]2CN(c3c(F)cccc3C#N)C(=O)[C@H]2NC(=O)c2ccc(Cl)cc2)c(F)c1` [Example 341], the results for the EC50 at human FPR1 and on human FPR2 were 4.1 µM and 0.023 µM, respectively.
With `COCCn1cccc(N2C[C@@H](c3c(F)cc(OC)cc3F)[C@H](NC(=O)c3ccc(OC)cc3)C2=O)c1=O` [Example 342], the EC50 was found to be 0.83 µM on human FPR1 and 0.032 µM at human FPR2.
On to `COc1cc(F)c([C@@H]2CN(c3nc(C4CCOCC4)ccc3N(C)C)C(=O)[C@H]2NC(=O)c2ccc(OC(F)F)cc2)c(F)c1` [Example 343], for which the EC50 at human FPR1 was 0.12 µM; at human FPR2, 0.033 µM.
As for `COc1cc(F)c([C@@H]2CN(c3ncccc3C(F)(F)F)C(=O)[C@H]2NC(=O)c2ccc(Cl)nc2)c(F)c1` [Example 344], the EC50 on human FPR1 worked out at 2 µM; on human FPR2, 0.046 µM.
For `CCn1cccc(N2C[C@@H](c3c(F)cc(OC)cc3F)[C@H](NC(=O)c3cccc(OC)c3)C2=O)c1=O` [Example 345], the figures for the EC50 at human FPR1 and at human FPR2 were 0.0031 µM and 0.089 µM, respectively.
Turning to `COc1cc(F)c([C@@H]2CN(c3cncnc3O)C(=O)[C@H]2NC(=O)c2ccc(OC(F)F)cc2)c(F)c1` [Example 346], the half-maximal effective concentration (EC50) on human FPR1 amounted to 1.9 µM; on human FPR2, 0.097 µM.
The matching figures for `COCCn1cccc(N2C[C@@H](c3c(F)cc(OC)cc3F)[C@H](NC(=O)c3ccc(OC(C)C)cc3)C2=O)c1=O` [Example 347]: 0.84 µM and 0.11 µM.
The corresponding values for `COc1cc(F)c([C@@H]2CN(c3nc(N4C[C@@H](C)N(C)[C@@H](C)C4)ccc3C3CC3)C(=O)[C@H]2NC(=O)c2ccc(OC(F)F)cc2)c(F)c1` [Example 348] are 1.4 µM and 0.111 µM.
Turning to `COc1cc(F)c([C@@H]2CN(c3ncccc3C(F)(F)F)C(=O)[C@H]2NC(=O)C2CCc3cc(OC)ccc3C2)c(F)c1` (some centres unmarked) [Example 349], the EC50 at human FPR1 stood at 5.5 µM; at human FPR2 it was 0.57 µM.
On to `COc1cc(F)c([C@@H]2CN(c3c(C)ccn(C4CCOC4)c3=O)C(=O)[C@H]2NC(=O)c2ccc(OC(F)(F)F)cc2)c(F)c1` (some centres unmarked) [Example 350], for which the EC50 at human FPR1 amounted to 0.0006 µM; on human FPR2, 0.0009 µM.
The corresponding values for `COc1cc(F)c([C@@H]2CN(c3c(C)ccn(C4CC4)c3=O)C(=O)[C@H]2NC(=O)c2ccc(OC(F)F)cc2)c(F)c1` [Example 351] are 0.005 µM and 0.008 µM.
The matching figures for `COc1cc(F)c([C@@H]2CN(c3c(C)ccn(C4CC4)c3=O)C(=O)[C@H]2NC(=O)c2ccc(OC(F)(F)F)cc2)c(F)c1` [Example 352]: 0.003 µM and 0.0048 µM.
On to `COCCN1CCC(N2C[C@@H](c3c(F)cc(OC)cc3F)[C@H](NC(=O)c3ccc(OC(F)(F)F)cc3)C2=O)C1=O` (some centres unmarked) [Example 353], for which the results for the EC50 at human FPR1 and at human FPR2 were 0.017 µM and 0.0042 µM, respectively.
The matching figures for `COc1ccc([C@@H]2CN(c3cccn(CC(O)C(F)(F)F)c3=O)C(=O)[C@H]2NC(=O)c2ccc(OC(F)(F)F)cc2)cc1` (some centres unmarked) [Example 354]: 0.007 µM and 0.0032 µM.
As for `O=C(N[C@@H]1C(=O)N(c2cccn(CC(O)C(F)(F)F)c2=O)C[C@H]1c1ccc(Cl)cc1)c1ccc(OC(F)(F)F)cc1` (some centres unmarked) [Example 355], the EC50 is 0.004 µM on human FPR1 and 0.0045 µM on human FPR2.
Regarding `COc1cc(F)c([C@@H]2CN(c3ccnn(CCO)c3=O)C(=O)[C@H]2NC(=O)c2ccc(OC(F)(F)F)cc2)c(F)c1` [Example 356], the results for the EC50 at human FPR1 and on human FPR2 were 0.031 µM and 0.0035 µM, respectively.
Turning to `CCn1nccc(N2C[C@@H](c3c(F)cc(OC)cc3F)[C@H](NC(=O)c3ccc(OC(F)(F)F)cc3)C2=O)c1=O` [Example 357], the EC50 at human FPR1 is 0.012 µM; at human FPR2 it was 0.0031 µM.
In the case of `CCn1nccc(N2C[C@@H](c3c(F)cc(OC)cc3F)[C@H](NC(=O)c3ccc(OC(F)F)cc3)C2=O)c1=O` [Example 358], the EC50 on human FPR1 worked out at 0.014 µM; at human FPR2 it was 0.002 µM.
The matching figures for `COc1cc(F)c([C@@H]2CN(c3c(C)ccn(CC(C)O)c3=O)C(=O)[C@H]2NC(=O)c2ccc(OC(F)(F)F)cc2)c(F)c1` (some centres unmarked) [Example 359]: 0.006 µM and 0.0045 µM.
Regarding `COc1cc(F)c([C@@H]2CN(c3c(C)ccn(CC(C)O)c3=O)C(=O)[C@H]2NC(=O)c2ccc(OC(F)F)cc2)c(F)c1` (some centres unmarked) [Example 360], the EC50 was 0.018 µM at human FPR1 and 0.0032 µM on human FPR2.
The corresponding values for `COc1cc(F)c([C@@H]2CN(c3c(C)ccn(CC(C)O)c3=O)C(=O)[C@H]2NC(=O)c2ccc(OC(F)(F)F)cc2)c(F)c1` (some centres unmarked) [Example 361] are 0.003 µM and 0.0017 µM.
As to `COc1cc(F)c([C@@H]2CN(c3c(C)ccn(CC(C)O)c3=O)C(=O)[C@H]2NC(=O)c2ccc(Cl)cc2)c(F)c1` (some centres unmarked) [Example 362], the EC50 on human FPR1 amounted to 0.012 µM; at human FPR2, 0.0001 µM.
